Molecular target: Cell division control protein 42 homolog (Homo sapiens) (UniProt P60953)
Assay: wildtype Cdc42 GTP-binding inhibitors, SAR follow-up, biochemical, pyrazoline analogs, multiplex bead flow cytometry, Ki (AID 2019)
Conditions: bead-based flow cytometry, Bodipy-FL-GTP binding; Ki calculated from EC50

Cell division control protein 42 homolog (Homo sapiens), sequence (P60953 whole entry, looked up): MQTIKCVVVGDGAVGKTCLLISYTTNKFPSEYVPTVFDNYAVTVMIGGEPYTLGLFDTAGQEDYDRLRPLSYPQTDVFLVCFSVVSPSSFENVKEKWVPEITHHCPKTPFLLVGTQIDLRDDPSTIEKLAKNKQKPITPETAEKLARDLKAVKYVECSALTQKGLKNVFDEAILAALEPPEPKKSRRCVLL

Ki [nM]	Compound
660	COc1ccc(C2CC(c3cccc(C(F)(F)F)c3)=NN2c2ccc(S(N)(=O)=O)cc2)cc1 (stereo unspecified)
1530	NS(=O)(=O)c1ccc(N2N=C(c3ccccc3)CC2c2ccccc2Cl)cc1 (stereo unspecified)
270	COc1ccc(C2CC(c3cccc(Cl)c3)=NN2c2ccc(S(N)(=O)=O)cc2)cc1 (stereo unspecified)
310	COc1ccc(C2CC(c3cccc(OC)c3)=NN2c2ccc(S(N)(=O)=O)cc2)cc1 (stereo unspecified)
1270	COc1ccc(C2CC(c3ccccc3OC)=NN2c2ccc(S(N)(=O)=O)cc2)cc1 (stereo unspecified)
230	NS(=O)(=O)c1ccc(N2N=C(c3ccccc3)CC2c2ccc(Br)cc2)cc1 (stereo unspecified)
700	NS(=O)(=O)c1ccc(N2N=C(c3ccc(Cl)cc3)CC2c2ccccc2)cc1 (stereo unspecified)
4450	COc1ccc(C2CC(c3ccc(F)cc3)=NN2c2cccc(F)c2)cc1OC (stereo unspecified)
710	COc1ccc(C2CC(c3ccccc3Br)=NN2c2ccc(S(N)(=O)=O)cc2)cc1 (stereo unspecified)
630	COc1ccc(C2CC(c3ccc(Br)cc3)=NN2c2ccc(S(N)(=O)=O)cc2)cc1 (stereo unspecified)
1210	COc1ccc(C2CC(c3ccccc3)=NN2c2ccc(S(N)(=O)=O)cc2)cc1OC (stereo unspecified)
800	COc1ccc(C2CC(c3cccc(C)c3)=NN2c2ccc(S(N)(=O)=O)cc2)cc1 (stereo unspecified)
440	COc1ccc(C2CC(c3cccc(Br)c3)=NN2c2ccc(S(N)(=O)=O)cc2)cc1 (stereo unspecified)
700	NS(=O)(=O)c1ccc(N2N=C(c3ccccc3)CC2c2cccc(Cl)c2)cc1 (stereo unspecified)
1060	Cc1cccc(C2CC(c3ccccc3)=NN2c2ccc(S(N)(=O)=O)cc2)c1 (stereo unspecified)
620	COc1ccc(C2CC(c3cccs3)=NN2c2ccc(S(N)(=O)=O)cc2)cc1 (stereo unspecified)
490	COc1ccc(C2CC(c3ccc(Cl)cc3)=NN2c2ccc(S(N)(=O)=O)cc2)cc1 (stereo unspecified)
610	COc1ccc(C2CC(c3cccc(F)c3)=NN2c2ccc(S(N)(=O)=O)cc2)cc1 (stereo unspecified)

Ki [nM]	Compound
900	COc1ccc(C2CC(c3ccc(F)cc3)=NN2c2ccc(S(N)(=O)=O)cc2)cc1 (stereo unspecified)
3510	Cc1ccccc1C1CC(c2ccccc2)=NN1c1ccc(S(N)(=O)=O)cc1 (stereo unspecified)
540	COc1ccc(C2=NN(c3ccc(S(N)(=O)=O)cc3)C(c3ccc(OC)cc3)C2)cc1 (stereo unspecified)
580	NS(=O)(=O)c1ccc(N2N=C(c3ccccc3)CC2c2ccc(Cl)cc2)cc1 (stereo unspecified)
1010	COc1cccc(C2CC(c3ccccc3)=NN2c2ccc(S(N)(=O)=O)cc2)c1 (stereo unspecified)
4750	COc1ccccc1C1CC(c2ccccc2)=NN1c1ccc(S(N)(=O)=O)cc1 (stereo unspecified)
590	COc1ccc(C2CC(c3ccccc3F)=NN2c2ccc(S(N)(=O)=O)cc2)cc1 (stereo unspecified)
7280	COc1ccc(C2=NN(c3ccccc3)C(c3ccccc3C(F)(F)F)C2)cc1 (stereo unspecified)
2010	COc1ccc(C2CC(c3cccnc3)=NN2c2ccc(S(N)(=O)=O)cc2)cc1 (stereo unspecified)
1050	Cc1ccc(C2CC(c3ccccc3)=NN2c2ccc(S(N)(=O)=O)cc2)cc1 (stereo unspecified)
1540	COc1ccc(C2CC(c3ccsc3)=NN2c2ccc(S(N)(=O)=O)cc2)cc1 (stereo unspecified)
1070	COc1ccc(-c2cc(-c3ccccc3)nn2-c2ccc(S(N)(=O)=O)cc2)cc1
550	COc1ccc(C2CC(c3ccccc3Cl)=NN2c2ccc(S(N)(=O)=O)cc2)cc1 (stereo unspecified)
470	COc1ccc(C2CC(c3ccc(C)cc3)=NN2c2ccc(S(N)(=O)=O)cc2)cc1 (stereo unspecified)
50	O=S(=O)(c1ccc(N2N=C(c3ccccc3)CC2c2ccccc2)cc1)C(F)F (stereo unspecified)
710	COc1ccc(C2CC(c3ccc(N(C)C)cc3)=NN2c2ccc(S(N)(=O)=O)cc2)cc1 (stereo unspecified)
870	COc1ccc(C2CC(c3ccccc3C)=NN2c2ccc(S(N)(=O)=O)cc2)cc1 (stereo unspecified)
700	NS(=O)(=O)c1ccc(N2N=C(c3ccccc3)CC2c2cccc(Br)c2)cc1 (stereo unspecified)

From PubChem BioAssay AID2019 (NMMLSC, 2009)
